# Data from PubChem BioAssay (NCI).
#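 Following 48 hours of exposure in 96-well plates, responses at five concentrations were used to interpolate endpoints linearly. GI50 is the concentration that inhibits growth by half. TGI marks complete inhibition of growth.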
# Experiments:
# Assay in all cases: NCI anticancer screen, dose series, 48 h
# SW-620 colon = test system: SW-620 colon
# 786-0 renal = test system: 786-0 renal
# LOX IMVI melanoma = test system: LOX IMVI melanoma
# UACC-62 melanoma = test system: UACC-62 melanoma
# SK-MEL-28 melanoma = test system: SK-MEL-28 melanoma
# MDA-MB-231 breast = test system: MDA-MB-231 breast
# COLO 205 colon = test system: COLO 205 colon
# OVCAR-5 ovarian = test system: OVCAR-5 ovarian
# UO-31 renal = test system: UO-31 renal
# RXF 393 renal = test system: RXF 393 renal
# OVCAR-4 ovarian = test system: OVCAR-4 ovarian
# SF-295 CNS = test system: SF-295 CNS
# U251 CNS = test system: U251 CNS
# CCRF-CEM leukemia = test system: CCRF-CEM leukemia
# IGROV1 ovarian = test system: IGROV1 ovarian
# HT29 colon = test system: HT29 colon
# MDA-MB-435 = test system: MDA-MB-435
# BT-549 breast = test system: BT-549 breast
# MALME-3M melanoma = test system: MALME-3M melanoma
# NCI-H460 lung = test system: NCI-H460 lung
# ACHN renal = test system: ACHN renal
# T-47D breast = test system: T-47D breast
# M14 melanoma = test system: M14 melanoma
# SNB-19 CNS = test system: SNB-19 CNS
# UACC-257 melanoma = test system: UACC-257 melanoma
# HS 578T breast = test system: HS 578T breast
# SF-539 CNS = test system: SF-539 CNS
# HL-60(TB) leukemia = test system: HL-60(TB) leukemia
# HCT-15 colon = test system: HCT-15 colon
# HCT-116 colon = test system: HCT-116 colon
# KM12 colon = test system: KM12 colon
# HCC-2998 colon = test system: HCC-2998 colon
# NCI-H522 lung = test system: NCI-H522 lung
# K-562 leukemia = test system: K-562 leukemia
# MCF7 breast = test system: MCF7 breast
# A498 renal = test system: A498 renal
# HOP-62 NSCLC = test system: HOP-62 NSCLC
# OVCAR-8 ovarian = test system: OVCAR-8 ovarian
# SK-MEL-5 melanoma = test system: SK-MEL-5 melanoma
# PC-3 prostate = test system: PC-3 prostate
# SK-OV-3 ovarian = test system: SK-OV-3 ovarian
# A549 NSCLC = test system: A549 NSCLC
# SN12C renal = test system: SN12C renal
# TK-10 renal = test system: TK-10 renal
# RPMI-8226 leukemia = test system: RPMI-8226 leukemia
# NCI-H23 lung = test system: NCI-H23 lung
# NCI-H226 lung = test system: NCI-H226 lung
# NCI/ADR-RES ovarian = test system: NCI/ADR-RES ovarian
# SNB-75 CNS = test system: SNB-75 CNS
# SF-268 CNS = test system: SF-268 CNS
# CAKI-1 renal = test system: CAKI-1 renal
# MOLT-4 leukemia = test system: MOLT-4 leukemia
# SK-MEL-2 melanoma = test system: SK-MEL-2 melanoma
# DU-145 prostate = test system: DU-145 prostate
# SR leukemia = test system: SR leukemia
structure (smiles),measurement,setting,value
COc1ccc(S(=O)(=O)NCCCNc2nccc(-c3c(-c4ccc(F)cc4)nc4sccn34)n2)cc1,GI50,SW-620 colon,24 µM
same,TGI,SW-620 colon,> 100 µM
same,GI50,786-0 renal,5.83 µM
same,TGI,786-0 renal,> 100 µM
same,GI50,LOX IMVI melanoma,5.53 µM
same,TGI,LOX IMVI melanoma,> 100 µM
same,GI50,UACC-62 melanoma,3.38 µM
same,TGI,UACC-62 melanoma,74.8 µM
same,GI50,SK-MEL-28 melanoma,9.5 µM
same,TGI,SK-MEL-28 melanoma,> 100 µM
same,GI50,MDA-MB-231 breast,7.27 µM
same,TGI,MDA-MB-231 breast,> 100 µM
same,GI50,COLO 205 colon,5.58 µM
same,TGI,COLO 205 colon,73.9 µM
same,GI50,OVCAR-5 ovarian,32.7 µM
same,TGI,OVCAR-5 ovarian,> 100 µM
same,GI50,UO-31 renal,3.83 µM
same,TGI,UO-31 renal,> 100 µM
same,GI50,RXF 393 renal,3.36 µM
same,TGI,RXF 393 renal,76.7 µM
same,GI50,OVCAR-4 ovarian,3.07 µM
same,TGI,OVCAR-4 ovarian,27.2 µM
same,GI50,SF-295 CNS,11.2 µM
same,TGI,SF-295 CNS,72.3 µM
same,GI50,U251 CNS,7.26 µM
same,TGI,U251 CNS,> 100 µM
same,GI50,CCRF-CEM leukemia,4.42 µM
same,TGI,CCRF-CEM leukemia,> 100 µM
same,GI50,IGROV1 ovarian,5.59 µM
same,TGI,IGROV1 ovarian,> 100 µM
same,GI50,HT29 colon,2.84 µM
same,TGI,HT29 colon,20.2 µM
same,GI50,MDA-MB-435,3.28 µM
same,TGI,MDA-MB-435,> 100 µM
same,GI50,BT-549 breast,5.42 µM
same,TGI,BT-549 breast,59.4 µM
same,GI50,MALME-3M melanoma,5.78 µM
same,TGI,MALME-3M melanoma,> 100 µM
same,GI50,NCI-H460 lung,4.33 µM
same,TGI,NCI-H460 lung,> 100 µM
same,GI50,ACHN renal,2.73 µM
same,TGI,ACHN renal,> 100 µM
same,GI50,T-47D breast,3.24 µM
same,TGI,T-47D breast,71.3 µM
same,GI50,M14 melanoma,8.98 µM
same,TGI,M14 melanoma,> 100 µM
same,GI50,SNB-19 CNS,40.2 µM
same,TGI,SNB-19 CNS,> 100 µM
same,GI50,UACC-257 melanoma,12.6 µM
same,TGI,UACC-257 melanoma,> 100 µM
same,GI50,HS 578T breast,3.58 µM
same,TGI,HS 578T breast,> 100 µM
same,GI50,SF-539 CNS,17.1 µM
same,TGI,SF-539 CNS,> 100 µM
same,GI50,HL-60(TB) leukemia,7.51 µM
same,TGI,HL-60(TB) leukemia,> 100 µM
same,GI50,HCT-15 colon,3.6 µM
same,TGI,HCT-15 colon,> 100 µM
same,GI50,HCT-116 colon,4.85 µM
same,TGI,HCT-116 colon,> 100 µM
same,GI50,KM12 colon,5.07 µM
same,TGI,KM12 colon,> 100 µM
same,GI50,HCC-2998 colon,11.8 µM
same,TGI,HCC-2998 colon,56.7 µM
same,GI50,NCI-H522 lung,5.02 µM
same,TGI,NCI-H522 lung,> 100 µM
same,GI50,K-562 leukemia,2.99 µM
same,TGI,K-562 leukemia,> 100 µM
same,GI50,MCF7 breast,2.74 µM
same,TGI,MCF7 breast,> 100 µM
same,GI50,A498 renal,1.21 µM
same,TGI,A498 renal,8.37 µM
same,GI50,HOP-62 NSCLC,18 µM
same,TGI,HOP-62 NSCLC,> 100 µM
same,GI50,OVCAR-8 ovarian,4.3 µM
same,TGI,OVCAR-8 ovarian,> 100 µM
same,GI50,SK-MEL-5 melanoma,5.49 µM
same,TGI,SK-MEL-5 melanoma,74.9 µM
same,GI50,PC-3 prostate,8.74 µM
same,TGI,PC-3 prostate,> 100 µM
same,GI50,SK-OV-3 ovarian,8.11 µM
same,TGI,SK-OV-3 ovarian,> 100 µM
same,GI50,A549 NSCLC,4.33 µM
same,TGI,A549 NSCLC,> 100 µM
same,GI50,SN12C renal,7.55 µM
same,TGI,SN12C renal,> 100 µM
same,GI50,TK-10 renal,11.8 µM
same,TGI,TK-10 renal,> 100 µM
same,GI50,RPMI-8226 leukemia,6.25 µM
same,TGI,RPMI-8226 leukemia,58.2 µM
same,GI50,NCI-H23 lung,15.3 µM
same,TGI,NCI-H23 lung,> 100 µM
same,GI50,NCI-H226 lung,6.06 µM
same,TGI,NCI-H226 lung,> 100 µM
same,GI50,NCI/ADR-RES ovarian,5.23 µM
same,TGI,NCI/ADR-RES ovarian,> 100 µM
same,GI50,SNB-75 CNS,1.56 µM
same,TGI,SNB-75 CNS,7.41 µM
same,GI50,SF-268 CNS,7.85 µM
same,TGI,SF-268 CNS,> 100 µM
same,GI50,CAKI-1 renal,6.72 µM
same,TGI,CAKI-1 renal,> 100 µM
same,GI50,MOLT-4 leukemia,5.7 µM
same,TGI,MOLT-4 leukemia,> 100 µM
same,GI50,SK-MEL-2 melanoma,12.4 µM
same,TGI,SK-MEL-2 melanoma,50.3 µM
same,GI50,DU-145 prostate,7.14 µM
same,TGI,DU-145 prostate,> 100 µM
same,GI50,SR leukemia,3.69 µM
same,TGI,SR leukemia,> 100 µM
